# Measurements taken from PubChem BioAssay (NCI).
# “And” between values parts separate entries of the source, which are not always exact repeats. Equal values may be shown once.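 Five concentrations, 48 hours, 96-well plates. Abbreviation: GI50, concentration required for 50% inhibition of growth. Definition used: TGI = concentration required for complete inhibition of growth.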
# Experiments:
# Assay in all cases: NCI anticancer screen, dose series, 48 h
# A498 renal = system: A498 renal
# ACHN renal = system: ACHN renal
# COLO 205 colon = system: COLO 205 colon
# HCT-116 colon = system: HCT-116 colon
# HCT-15 colon = system: HCT-15 colon
# PC-3 prostate = system: PC-3 prostate
# SK-MEL-5 melanoma = system: SK-MEL-5 melanoma
# SR leukemia = system: SR leukemia
# SW-620 colon = system: SW-620 colon
# UO-31 renal = system: UO-31 renal
SMILES,TGI (A498 renal),TGI (ACHN renal),TGI (COLO 205 colon),TGI (HCT-116 colon),TGI (HCT-15 colon),TGI (PC-3 prostate),TGI (SK-MEL-5 melanoma),TGI (SR leukemia),TGI (SW-620 colon),TGI (UO-31 renal),GI50 (A498 renal),GI50 (ACHN renal),GI50 (COLO 205 colon),GI50 (HCT-116 colon),GI50 (HCT-15 colon),GI50 (PC-3 prostate),GI50 (SK-MEL-5 melanoma),GI50 (SR leukemia),GI50 (SW-620 colon),GI50 (UO-31 renal)
c1ccc(CN2CCc3[nH]c4ccccc4c3C2)cc1,88.1 µM,99.8 µM,31.9 µM,43.6 µM,62.6 µM,> 100 µM,31.3 µM,> 76.6 µM,50 µM,79.2 µM,,,,,,,,,,
Cc1ccc(C(=O)NCCCOc2ccc(N3C(N)=NC(N)=NC3(C)C)cc2Cl)cc1S(=O)(=O)F,> 100 µM,> 100 µM,> 100 µM,> 100 µM,> 100 µM,> 100 µM,> 100 µM,> 100 µM,> 100 µM,> 100 µM,> 100 µM,> 100 µM,38.1 µM,15 µM,> 100 µM,5.9 µM,4.78 µM,> 100 µM,10.2 µM,> 100 µM
NC(=S)N=Nc1c(O)[nH]c2c(Cl)cc(Cl)cc12,> 100 µM,> 100 µM,41.8 µM,40.5 µM,> 100 µM,81.1 µM,28.2 µM,70.4 µM,> 100 µM,> 100 µM,,,,,,,,,,
COc1cccc(/C=C/c2nc3c(cnn3-c3ccccc3)c(=O)[nH]2)c1,> 100 µM,> 100 µM,> 100 µM,> 100 µM,> 100 µM,> 100 µM,> 100 µM,> 100 µM,> 100 µM,> 100 µM,> 100 µM,28.1 µM,> 100 µM,12 µM,> 100 µM,> 100 µM,> 96.6 µM,,> 31.4 µM,> 56.8 µM
COc1cc(Cl)cc(-c2nn(-c3cccc(NC(=O)Nc4cccc(C(F)(F)F)c4)c3)cc2-c2ccncc2)c1,25.6 µM,16.2 µM,3.17 µM,7.61 µM,10.6 µM,3.2 µM,2.84 µM,4.39 µM,26.8 µM,7.75 µM,2.25 µM,1.72 µM,1.53 µM,0.754 µM,1.34 µM,0.417 µM,1.48 µM,1.14 µM,2.3 µM,1.03 µM
C=C1C(=O)OC2C1C(OC(=O)/C(C)=C/C)CC(O)(CCl)C1C(O)C=C(C)C21O (configuration not stated),> 60.1 µM,18.2 µM,18.5 µM,18.9 µM,14.4 µM,> 51.3 µM,27.7 µM,29.2 µM,15.7 µM,33.9 µM,,,,,,,,,,
C=C1c2ccccc2C(=O)c2c1c1c(C(=O)OC)c(OC(=O)OCc3ccc([N+](=O)[O-])cc3)ccc1n2Cc1ccccc1,> 100 µM,> 100 µM,> 100 µM,20.4 µM,> 100 µM,4.4 µM,64.3 µM,> 100 µM,> 100 µM,45.4 µM,65.5 µM,55.9 µM,32.4 µM,4.48 µM,34.3 µM,0.329 µM,29.1 µM,2.59 µM,5.63 µM,8.28 µM
CS(=O)(=O)Nc1cc(-c2ccc3ncnc(Nc4ccc(F)c(Cl)c4)c3c2)cnc1Cl,0.664 µM and 0.555 µM,13.8 µM and > 42.5 µM,2.19 µM and 4.53 µM,3.22 µM and 5.22 µM,11.2 µM and 11.6 µM,5.2 µM and 7.02 µM,1.69 µM,5.56 µM and 43 µM,11.2 µM and 11.9 µM,1.69 µM,0.199 µM and 0.13 µM,0.404 µM and 0.575 µM,0.562 µM and 1.06 µM,0.783 µM and 0.946 µM,0.559 µM and 0.542 µM,0.594 µM and 0.562 µM,0.41 µM,0.577 µM and 2.2 µM,0.741 µM and 1.01 µM,0.204 µM
C[C@]12CC[C@@H]3c4ccc(O)cc4CC[C@H]3[C@@H]1CC[C@@H]2NS(=O)(=O)c1ccc(Br)cc1,3.7 µM,11.1 µM,4.04 µM,5.16 µM,,13.8 µM,3.22 µM,39.3 µM,13.1 µM,4.35 µM,1.61 µM,3.17 µM,2.12 µM,2.29 µM,,2.6 µM,1.76 µM,3.37 µM,3.35 µM,1.76 µM
COCCOCCOCc1n(Cc2ccc3ccccc3c2)c2ccccc2[n+]1Cc1ccc2ccccc2c1,2.19 µM,5.37 µM,1.15 µM,1.65 µM,3.36 µM,1.59 µM,0.544 µM,1.6 µM,2.2 µM,4.58 µM,0.92 µM,2.16 µM,0.27 µM,0.385 µM,1.69 µM,0.344 µM,0.216 µM,0.36 µM,0.624 µM,1.83 µM
O=C(O)C1CC=CCC1C(=O)Nc1cccc(O)c1 (configuration not stated),> 100 µM,> 100 µM,> 100 µM,> 100 µM,> 100 µM,> 100 µM,> 100 µM,> 100 µM,> 100 µM,> 100 µM,,,,,,,,,,
CNC(=O)c1cc(Oc2cccc3nc(NC(=O)Nc4cc(C(F)(F)F)cc(C(F)(F)F)c4)ccc23)ccn1,5.02 µM,16.4 µM,23.8 µM,41.8 µM,> 100 µM,38.2 µM,24.2 µM,> 100 µM,> 100 µM,40.5 µM,1.99 µM,3.8 µM,10.8 µM,13.8 µM,18.1 µM,6.06 µM,6.2 µM,13 µM,16.9 µM,4.91 µM
O=C(NCCc1ccccc1)Nc1ccc2cc3ccc(NC(=O)NCCc4ccccc4)cc3nc2c1,8.44 µM,> 100 µM,1.19 µM,1.29 µM,> 100 µM,3.59 µM,3 µM,16 µM,1.31 µM,> 100 µM,1.35 µM,20.9 µM,0.318 µM,0.349 µM,> 100 µM,1.63 µM,1.5 µM,0.392 µM,0.346 µM,> 100 µM
NCCCCCNc1noc(Cc2c[nH]c3cc(Br)ccc23)n1,10.7 µM,21.7 µM,3.22 µM,13.4 µM,17.9 µM,45.7 µM,16.2 µM,14.1 µM,16.9 µM,25.3 µM,1.76 µM,9.02 µM,1.52 µM,0.675 µM,0.834 µM,3.2 µM,2.08 µM,0.406 µM,0.707 µM,3.46 µM
